Test results: patent US20200392150A1, “Diaryl-B-Lactam Compound and Preparation Method and Pharmaceutical Use Thereof” (Fudan University, priority 2016, published 2020)
Where a name gives a salt, the structure may show the parent alone. Read-outs that look alike come from different tables or passages of the source.

Columns and labels:
Hela = assay: In vitro cell growth inhibition assay (MTT); assay type: cell-based, human; conditions: 48 h, read-out: IC50 Hela
Outline: (§1)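 SKOV3, A2780 or HeLa cells were seeded at 5000 per well, allowed to adhere overnight, then treated 48 h with compounds; 0.2% DMSO served as control. IC50 values came from growth inhibition rates.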

A2780 = assay: In vitro cell growth inhibition assay (MTT); assay type: cell-based, human; conditions: read-out: IC50 A2780
Outline: as §1

SKOV3 = assay: In vitro cell growth inhibition assay (MTT); assay type: cell-based, human; conditions: read-out: IC50 SKOV3
Outline: as §1

MDA-MB-231 = assay: In vitro cell growth inhibition assay (MTT); assay type: cell-based, human; conditions: read-out: IC50 MDA-MB-231
Outline: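 5000 cells/well, overnight attachment; compounds 48 h (vehicle 0.2% DMSO); MTT 0.5 mg/mL, 4 h, 37° C; formazan in DMSO; A540. IC50 from growth inhibition rates.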

[1] = Hela human cervical cancer cell line, MTT
[2] = A2780 human ovarian cancer cell line, 48 h, MTT
[3] = SK-OV-3, SKOV-3 human ovarian cancer cell line, 48 h, MTT
[4] = MDA-MB-231 human breast cancer cell line, 48 h, MTT

Row | SMILES | melting point | IC50 (Hela; [1]) | IC50 (A2780; [2]) | IC50 (SKOV3; [3]) | IC50 (MDA-MB-231; [4]) | IC50 (Hela; Homo sapiens, HeLa) | IC50 (A2780; Homo sapiens, A2780, 48 h) | IC50 (SKOV3; Homo sapiens, SK-OV-3, 48 h) | IC50 (MDA-MB-231; Homo sapiens, MDA-MB-231, 48 h)
1 | C=C1C(=O)N(c2cc(OC)c(OC)c(OC)c2)[C@H]1c1ccc(OC)c(OCc2ccccc2)c1 [Compound 47, (S)-4-(3-(benzyloxy)-4-methoxyphenyl)-3-methylene-1-(3,4,5-trimethoxyphenyl)azetidin-2-one] | 133 to 134 °C | > 20 µM | > 20 µM | > 20 µM | > 20 µM |  |  |  | 
2 | C=C1C(=O)N(c2cc(OC)c(OC)c(OC)c2)[C@H]1c1ccc(OC)c(OC(=O)c2ccc(F)cc2)c1 [Compound 20, (S)-2-methoxy-5-(3-methylene-4-oxo-1-(3,4,5-trimethoxyphenyl)azetidin-2-yl)phenyl 4-fluorobenzoate] | 185 to 186 °C |  |  |  |  | 0.075 µM | 0.169 µM | 0.114 µM | 0.223 µM
3 | C=C1C(=O)N(c2cccc(OC)c2)[C@H]1c1ccc(OC)c(O)c1 [Compound 51, (S)-1-(3-methoxyphenyl)-4-(3-hydroxy-4-methoxyphenyl)-3-methyleneazetidin-2-one] | 104 to 105 °C | 2.17 µM | 0.677 µM | 1.39 µM | 1.37 µM |  |  |  | 
4 | C=C1C(=O)N(c2cc(OC)c(OC)c(OC)c2)[C@H]1c1ccc(OC)c(OS(N)(=O)=O)c1 [Compound 26, (S)-2-methoxy-5-(3-methylene-4-oxo-1-(3,4,5-trimethoxyphenyl)azetidin-2-yl)phenyl sulfamate] | 199 to 200 °C | 0.224 µM | 0.133 µM | 0.177 µM | 0.24 µM |  |  |  | 
5 | C=C1C(=O)N(c2cc(OC)c(OC)c(OC)c2)[C@H]1c1ccc(OC)c(OC(=O)c2cccnc2)c1 [Compound 22, (S)-2-methoxy-5-(3-methylene-4-oxo-1-(3,4,5-trimethoxyphenyl)azetidin-2-yl)phenyl nicotinate] | 113 to 114 °C | 0.115 µM | 0.112 µM | 0.075 µM | 0.151 µM |  |  |  | 
6 | COc1ccc([C@H]2/C(=C/C[Si](C)(C)C)C(=O)N2c2cc(OC)c(OC)c(OC)c2)cc1O [Compound 53, (S,Z)-4-(3-hydroxy-4-methoxyphenyl)-1-(3,4,5-trimethoxyphenyl)-3-(2-(trimethylsilyl)ethylidene)azetidin-2-one] | 67 to 69 °C | > 10 µM | > 10 µM | > 10 µM | > 10 µM |  |  |  | 
7 | C=C1C(=O)N(c2ccc(OC)cc2)[C@H]1c1ccc(OC)c(O)c1 [Compound 52, (S)-1-(4-methoxyphenyl)-4-(3-hydroxy-4-methoxyphenyl)-3-methyleneazetidin-2-one] | 180 to 181 °C | > 20 µM | > 20 µM | > 20 µM | > 20 µM |  |  |  | 
8 | C=CC(=O)Nc1cc([C@H]2C(=C)C(=O)N2c2cc(OC)c(OC)c(OC)c2)ccc1OC [Compound 42, (S)—N-(2-methoxy-5-(3-methylene-4-oxo-1-(3,4,5-trimethoxyphenyl)azetidin-2-yl)phenyl)acrylamide] | 143 to 144 °C | 0.125 µM | 0.065 µM | 0.063 µM | 0.034 µM |  |  |  | 
9 | C=C1C(=O)N(c2cc(OC)c(OC)c(OC)c2)[C@H]1c1ccc(OC)c(OC(=O)C2CC2)c1 [Compound 23, (S)-2-methoxy-5-(3-methylene-4-oxo-1-(3,4,5-trimethoxyphenyl)azetidin-2-yl)phenyl cyclopropanecarboxylate] | 68 to 69 °C |  |  |  |  | 0.142 µM | 0.129 µM | 0.108 µM | 0.207 µM
10 | C=C1C(=O)N(c2cc(OC)c(OC)c(OC)c2)[C@H]1c1ccc(OC)c(OS(=O)(=O)c2ccc(C)cc2)c1 (as salt: benzenesulfonate) [Compound 27, (S)-2-methoxy-5-(3-methylene-4-oxo-1-(3,4,5-trimethoxyphenyl)azetidin-2-yl)phenyl 4-methylbenzenesulfonate] | 162 to 163 °C |  |  |  |  |  |  |  | 
11 | C=C1C(=O)N(c2cc(OC)c(OC)c(OC)c2)[C@H]1c1ccc(OC)c(C(=O)OC)c1 [Compound 40, (5)-methyl 2-methoxy-5-(3-methylene-4-oxo-1-(3,4,5-trimethoxyphenyl)azetidin-2-yl)benzoate] | 112 to 113 °C | 0.942 µM | 0.281 µM | 0.539 µM | 0.479 µM |  |  |  | 
12 | C=C1C(=O)N(c2cc(OC)c(OC)c(OC)c2)[C@H]1c1ccc(OC)c(OCCN2CCOCC2)c1 [Compound 15, (S)-4-(4-methoxy-3-(2-morpholinoethoxy)phenyl)-3-methylene-1-(3,4,5-trimethoxyphenyl)azetidin-2-one] | 86 to 87 °C | > 10 µM | > 10 µM | > 10 µM | > 10 µM |  |  |  | 
13 | C=C1C(=O)N(c2cc(OC)c(OC)c(OC)c2)[C@H]1c1ccc(OC)c(OC(C)=O)c1 [Compound 46, (S)-2-methoxy-5-(3-methylene-4-oxo-1-(3,4,5-trimethoxyphenyl)azetidin-2-yl)phenyl acetate] | 122 to 123 °C | 0.116 µM | 0.081 µM | 0.104 µM | 0.133 µM |  |  |  | 
14 | C=C1C(=O)N(c2cc(OC)c(OC)c(OC)c2)[C@H]1c1ccc(OC)c(OC(=O)CNC(=O)OC(C)(C)C)c1 [Compound 34, (S)-2-methoxy-5-(3-methylene-4-oxo-1-(3,4,5-trimethoxyphenyl)azetidin-2-yl)phenyl 2-((tert-butoxycarbonyl)amino)acetate] | 88 to 89 °C | 0.062 µM | 0.24 µM | 0.264 µM | 0.335 µM |  |  |  | 
15 | C=C1C(=O)N(c2cc(OC)c(OC)c(OC)c2)[C@H]1c1ccc(OC)c(OS(=O)(=O)c2ccc(OC)c(OC)c2)c1 (as salt: benzenesulfonate) [Compound 33, (S)-2-methoxy-5-(3-methylene-4-oxo-1-(3,4,5-trimethoxyphenyl)azetidin-2-yl)phenyl 3,4-dimethoxybenzenesulfonate] | 70 to 71 °C |  |  |  |  |  |  |  | 
16 | C=C1C(=O)N(c2cc(OC)c(OC)c(OC)c2)[C@H]1c1ccc(OC)c(Cl)c1 [Compound 39, (S)-4-(3-chloro-4-methoxyphenyl)-3-methylene-1-(3,4,5-trimethoxyphenyl)azetidin-2-one] | 119 to 120 °C | 0.371 µM | 0.316 µM | 0.341 µM | 0.512 µM |  |  |  | 
17 | C=C1C(=O)N(c2cc(OC)c(OC)c(OC)c2)[C@H]1c1ccc(OC)c(OS(=O)(=O)CCN2C(=O)c3ccccc3C2=O)c1 [Compound 28, (S)-2-methoxy-5-(3-methylene-4-oxo-1-(3,4,5-trimethoxyphenyl)azetidin-2-yl)phenyl 2-(1,3-dioxoisoindolin-2-yl)ethanesulfonate] | 69 to 70 °C | > 20 µM | 16.8 µM | 13.3 µM | > 20 µM |  |  |  | 
18 | C=C1C(=O)N(c2cc(OC)c(OC)c(OC)c2)[C@H]1c1ccc(OC)c(NC(=O)C2CC2)c1 [Compound 45, (S)—N-(2-methoxy-5-(3-methylene-4-oxo-1-(3,4,5-trimethoxyphenyl)azetidin-2-yl)phenyl)cyclopropanecarboxamide] | 181 to 182 °C | 0.321 µM | 0.148 µM | 0.224 µM | 0.197 µM |  |  |  | 
19 | C=C1C(=O)N(c2cc(OC)c(OC)c(OC)c2)[C@H]1c1ccc(OC)c(OC(=O)c2ccc([N+](=O)[O-])cc2)c1 [Compound 19, (S)-2-methoxy-5-(3-methylene-4-oxo-1-(3,4,5-trimethoxyphenyl)azetidin-2-yl)phenyl 4-nitrobenzoate] | 88 to 89 °C | 0.102 µM | 0.055 µM | 0.084 µM | 0.105 µM |  |  |  | 
20 | C=CCOc1cc([C@H]2C(=C)C(=O)N2c2cc(OC)c(OC)c(OC)c2)ccc1OC [Compound 6, (S)-4-(3-(allyloxy)-4-methoxyphenyl)-3-methylene-1-(3,4,5-trimethoxyphenyl)azetidin-2-one] | 92 to 93 °C | 1.15 µM | 1.25 µM | 1.48 µM | 0.883 µM |  |  |  | 
21 | C=C1C(=O)N(c2cc(OC)c(OC)c(OC)c2)[C@H]1c1ccc(OC)c(OC(C)C)c1 [Compound 5, (S)-4-(3-isopropoxy-4-methoxyphenyl)-3-methylene-1-(3,4,5-trimethoxyphenyl)azetidin-2-one] | 146 to 147 °C | > 20 µM | 11.3 µM | 18 µM | 15.9 µM |  |  |  | 
22 | C=C1C(=O)N(c2cc(OC)c(OC)c(OC)c2)[C@H]1c1ccc(OC)c(OC)c1 [Compound 2, (S)-4-(3,4-dimethoxyphenyl)-3-methylene-1-(3,4,5-trimethoxyphenyl)azetidin-2-one] | 138 to 139 °C | 3.16 µM | 0.854 µM | 2.26 µM | 1.02 µM |  |  |  | 
23 | C=C1C(=O)N(c2cc(OC)c(OC)c(OC)c2)[C@H]1c1ccc(OC)c(OS(=O)(=O)c2ccc(NC(C)=O)cc2)c1 (as salt: benzenesulfonate) [Compound 30, (S)-2-methoxy-5-(3-methylene-4-oxo-1-(3,4,5-trimethoxyphenyl)azetidin-2-yl)phenyl 4-acetamidobenzenesulfonate] | 87 to 88 °C |  |  |  |  |  |  |  | 
